Starred links: 1 amine or outer side, 2 acyl side, 3 side chain; linkers in the order of their positions; H or OH if unused. Positions of bridges follow the written chain, without caps; N, C: chain ends. Non-standard residues stand in square brackets, D forms with d. Residues, ends and D or L forms follow the SMILES beside them. Chains are numbered I, II in the order given. Actinocin(9to1) = Cc1c2oc3c(C)ccc(C(=O)[*:1])c3nc-2c(C(=O)[*:2])c(N)c1=O; NMeV = CN[C@H](C(=O)O)C(C)C; Sar = CNCC(=O)O
What was measured:
[1] = tested on: human neutrophils; conditions: Wymann et al., J. Biol. Chem. 262 [1987] 12048; cited from earlier work
[2] = tested on: human neutrophils; experiment: superoxide formation (SOD-sensitive cytochrome c reduction) by human neutrophils; format: cell-based; conditions: 1 μm PAF for 2 minutes
Procedure: a) Superoxide production: neutrophils (3×10^6 /ml) are preincubated at 37° with or without 1 μm PAF for 2 minutes and then stimulated with increasing amounts of NAF. Recordings of cytochrome c reduction following NAF addition are shown.
Superoxide formation is measured at 37° as the SOD sensitive reduction of ferricytochrome c (M. Markert et al., Methods Enzymol. 132 [1984] 267). The assay mixture (800 μl) consists of 0.75×10^6 cells/ml PBS-BSA containing 85 μM cytochrome c. Absorbance changes are recorded in a Hewlett-Packard 8451A diode array spectrophotometer equipped with a thermostated seven-place cuvette exchanger. Table 4 documents the capacity of NAF to elicit the respiratory burst in human neutrophils: […]

[3] = tested on: New Zealand albino rabbits; experiment: neutrophil accumulation and plasma leakage in rabbit skin after intradermal injection; format: in vivo; conditions: 2 h; for effect on neutrophil accumulation induced by NAF: NAF 10^−9 moles; for effect on neutrophil accumulation induced by fMLP: fMLP 10^−9 moles
Text: Inflammatory responses are examined in the skin of conscious 2.0 to 2.5 kg New Zealand albino rabbits. Erythrocytes in blood from donor rabbits are sedimented with hydroxyethyl cellulose (Polysciences, Warrington, Pa.) and neutrophils in the resultant leucocyte-rich plasma are purified (>94% neutrophils) by density gradient centrifugation on Percoll (Pharmacia, Uppsala, Sweden). Cells are resuspended in Ca^2+ and Mg^2+—free Tyrode's solution containing 10% platelet poor plasma to a concentration of 10^6 leukocytes/ml and labeled for 15 min at room temperature with 40 μCi ^111indium-oxine (Amersham) per 10^6 cells. The labeled cells are washed by centrifugation through 10% platelet-poor plasma and approximately 10^6 cells per recipient are mixed with 10 μCi ^125iodine-labeled human serum albumin (Amersham) and injected intravenously through the lateral ear vein of rabbits with inflammatory lesions under study. Intradermal injections of inflammatory agents are then made and animals are killed 2 h later in studies with actinomycin D and polymyxin B, and 4 h later in dose-response experiments. Midway through the period that radiolabeled cells are in circulation, a blood sample is collected and the specific activities of neutrophils and plasma in blood are determined. Radioactivity in inflammatory lesions at the end of each experiment are determined in a multichannel gamma counter, the activity in control skin sites is subtracted and the absolute number of neutrophils and volume of plasma accumulating in inflammatory lesions are calculated from the specific activities. Neutrophil numbers in inflammatory lesions are standardised between animals by expressing the results as cell number per 10^6 neutrophils circulating per ml peripheral blood, according to the method of Cybulsky et al., Am. J. Pathol. 124 [1986] 367.
Recombinant NAF obtained as described under Example 19 is dissolved at 400 μg/ml in minimal essential medium (50 mM) plus 0.45 M NaCl (pH 6.5). Endotoxin (E. coli serotype 055:B5, Sigma, St. Louis, Mo.) is dissolved in pyrogen-free normal saline. fMLP is dissolved in dimethyl sulphoxide at 10^−2 M and diluted to working concentrations in PFS. Polymyxin B and actinomycin D are dissolved in 1 ml ethanol and diluted 20 fold by mixing with NAF, endotoxin or fMLP in PFS. In studies on inhibition of inflammatory responses 40 μg polymyxin B and 10^−7 moles actinomycin D are injected per skin site with […] endotoxin. In all experiments 0.2 ml of inflammatory agents are injected intradermally per site through 26 gauge needles, with 5 replicates of each treatment in each animal.

[4] = tested on: human neutrophils; experiment: stimulus-dependent exocytosis of granule contents by human neutrophils; format: cell-based; conditions: fMLP 0.1 μM
Procedure: Neutrophils (5×10^6/ml) suspended in PBS/BSA are preincubated with or without cytochalasin B (5 μg/ml) at 37° for 5 min.
Granule release is then initiated by adding the stimulus, e.g. NAF or a standard stimulus. The reaction is stopped 15 min later by rapid cooling in ice followed by centrifugation to sediment the cells. Vitamin B12-binding protein, β-glucuronidase and lactate dehydrogenase are determined in the cell-free media and cell pellets, and the release of these constituents is calculated in percent of the total cellular content (B. Dewalt and M. Baggiolini, Methods Enzymol. 132 [1986] 267).
Natural and recombinant NAF are tested in parallel on human neutrophils. They elicit virtually identical changes in cytosolic free Ca^2+, yielding a maximum rise at a concentration as low as 3 nM (FIG. 15). A nearly identical concentration-dependent respiratory burst response is obtained with both preparations in the range of 1 to 30 nM as assessed by chemiluminescence. The equivalence between natural and recombinant NAF is also reflected by chemotaxis and exocytosis measurements. Chemotactic migration is observed between 0.1 and 10 nM with a maximum effect at 1 nM. (Table 6). With either peptide a significant release of vitamin B12-binding protein from the specific granules at 0.3 nM and of beta-glucuronidase from the azurophil granules at 1 nM is observed.

[5] = tested on: human neutrophils; experiment: hydrogen peroxide formation by chemiluminescence in human neutrophils; format: cell-based
Procedure: b) H2O2-dependent chemiluminescence: the progress curves following stimulation with partially purified NAF and approximately equiactive concentrations of C5a and fMLP are shown on the left. The initial phase of the response is detailed on the right. The stimulants are added in 50 μl of PBS-BSA.
Lower graphs: respiratory burst induced by natural (left) and recombinant (right) NAF. Neutrophils (10^6 cells/ml) are stimulated with 3, 10 and 30 nM NAF at time zero and hydrogen peroxide production is measured by chemiluminescence (M. P. Wymann et al., Anal. Biochem. 165 [1987] 371-378).
The properties of NAF, fMLP and C5a as stimuli of the respiratory burst are compared by assessing the production of superoxide or hydrogen peroxide by the stimulated cells. Superoxide formation is determined as described in Example 13. Hydrogen peroxide formation is determined by chemiluminescence (M. P. Wymann et al., Anal. Biochem. 165 [1987] 371-378). The assay mixture consisting of PBS-BSA containing 0.1 M sodium azide, 0.01 mM luminol, 9 U/ml horseradish peroxidase and 10^6 neutrophils is preincubated for 10 min at 37° and the reaction is started by adding the stimulus via a microsyringe.

[6] = tested on: Rabbit neutrophils; experiment: NAF-induced exocytosis in rabbit neutrophils (N-acetyl-β-glucosaminidase release); format: cell-based; conditions: stimulus 100.0 nM, 15 min, cytochalasin B pretreated; purified natural NAF
Procedure: Rabbit neutrophils are isolated from peripheral blood (obtained from the ear vein or artery) by dextran sedimentation followed by Hypaque-Ficoll density gradient centrifugation. Purified natural NAF is used.
Exocytosis conditions: 0.6×10^6 cells (in a total volume of 0.15 ml) pretreated with cytochalasin B for 5 min at 37° are stimulated with NAF (0.1-100 nM) or fMLP (100 nM) for 15 min. N-acetyl-β-glucosaminidase, an azurophil granule marker, is determined in the cell-free medium.

[7] = tested on: human monocytes; experiment: NAF production by stimulated human mononuclear cells/monocytes (read out as elastase release); format: cell-based; conditions: mononuclear cell fraction; PHA 5 μg/ml or ConA 10 μg/ml
Procedure: […] At various time intervals the media are collected, cleared by centrifugation (20000 rpm for 20 min. at 4° C.) and NAF activity is measured. Cells from a single donor; means of duplicate cultures.
Human monocytes are isolated from buffy coats of donor blood (Swiss Red Cross Laboratory, Bern, Switzerland) by centrifugation through a Ficoll-Paque gradient. This method separates neutrophils from the so-called mononuclear cells, a mixture of monocytes (about 20%) and lymphocytes (about 80%). Three monocyte preparations are used: (i) the total mononuclear cell fraction, (ii) monocytes enriched from the mononuclear cell fraction by adherence, and (iii) 90% pure monocytes separated from the lymphocytes by centrifugal elutriation (G. Garotta et al., Biochem. Biophys. Res. Comm. 140 [1986] 948-954 and K. J. Clemetson et al., J. Exp. Med. 161 [1985] 972-983). […] At different times, aliquots of the culture media are sampled and NAF activity is determined as the capacity to induce the release of elastase from human neutrophils pretreated with cytochalasin B (B. Dewald et al., Biochem. Pharmacol. 36 [1987] 2505-2510).
Mononuclear cell cultures (5×10^6 cells/ml) consisting of monocytes and lymphocytes in a ratio of approximately 1:5 produce NAF when stimulated with LPS (100 ng/ml). NAF accumulates in the medium over 24 h and the production levels off between 24 h and 48 h. […]

[8] = tested on: neutrophils; experiment: sequential/repeated stimulation of neutrophils (desensitization, superoxide formation); format: cell-based, human; conditions: superoxide formation
Procedure: a) Neutrophils (3×10^6 /ml) are preincubated at 37° C. for 5 min. and then stimulated with different agonists as indicated (arrows).
b) Sequential or repeated stimulation with NAF and C5a. Conditions as in a).
Arrows show addition of agonists as indicated. The concentration of C5a is 0.5 nM in a) and 0.2 nM in b), that of fMLP is 20 nM in both experiments. The agonists are added in 50 μl of PBS-BSA.
On the other hand, when agonists acting on different receptors are used in sequence.(e.g. fMLP followed by C5a) these stimulations yield a normal response. Experiments of this type are therefore used to find out whether NAF acts by its own receptor or via a receptor also used by other agonists.

[9] = exposure to fresh human serum, then activity (superoxide production); format: in vitro ADME; conditions: 15 minutes with fresh human serum
Procedure: C5A and NAF are incubated for 15 minutes with fresh human serum or with PBS and the activity of the preparations is determined (superoxide production).
Since C5a and NAF have similar effects on neutrophils, further experiments must be performed to discriminate entirely between the two. Samples of NAF and C5a are exposed to fresh human serum.

[10] = with CB (cytochalasin B 5 μg/ml)

1-0-hexadecyl-2-0-acetyl-sn-glycero-3-phosphocholine [PAF, reference compound]
time between stimulus addition and onset of H2O2 production, as previously reported [1]: about 2 sec
effect of pretreatment of the cells with PAF on the superoxide response to NAF [2]: markedly enhanced

Cc1c2oc3c(C)ccc(C(=O)N[C@@H]4C(=O)N[C@H](C(C)C)C(=O)N5CCC[C@H]5C(=O)N(C)CC(=O)N(C)[C@@H](C(C)C)C(=O)O[C@@H]4C)c3nc-2c(C(=O)N[C@@H]2C(=O)N[C@H](C(C)C)C(=O)N3CCC[C@H]3C(=O)N(C)CC(=O)N(C)[C@@H](C(C)C)C(=O)O[C@@H]2C)c(N)c1=O [actinomycin D] (I: T[dV]P[Sar][NMeV] / II: T[dV]P[Sar][NMeV]; ester I:1-I:C, II:1-II:C; linker I:N-II:N via Actinocin(9to1))
effect on neutrophil accumulation induced by NAF ([3]; actinomycin D 10^−7 moles/site): no effect
inhibition of neutrophil accumulation induced by endotoxin ([3]; actinomycin D 10^−7 moles/site, endotoxin 10^−13 moles): 90%
effect on neutrophil accumulation induced by fMLP ([3]; actinomycin D 10^−7 moles/site): no effect

CSCC[C@H](NC=O)C(=O)N[C@@H](CC(C)C)C(=O)N[C@@H](Cc1ccccc1)C(=O)O [fMLP, N-formyl-L-methionyl-L-leucyl-L-phenylalanine, reference compound]
Percent release of Vit. B12-binding protein [4, 10]: 35.6 ± 5.5%
Percent release of lactate dehydrogenase [4, 10]: 5.3 ± 1.6%
Percent release of β-glucuronidase [4, 10]: 12.1 ± 4.4%
Percent release of Vit. B12-binding protein ([4]; without CB): 14.0 ± 0.9%
Percent release of lactate dehydrogenase ([4]; without CB): 5.7 ± 1.1%
Percent release of β-glucuronidase ([4]; without CB): 2.3 ± 0.8%
time between stimulus addition and onset of H2O2 production [5]: about 2 sec
time between stimulus addition and onset of H2O2 production, as previously reported [1]: about 2 sec
N-acetyl-β-glucosaminidase [6]: 181 pmol/min

CCCCC/C=C\C[C@@H](O)/C=C/C=C/C=C\[C@@H](O)CCCC(=O)O [leukotriene B4]
time between stimulus addition and onset of H2O2 production, as previously reported [1]: about 2 sec

Polymyxin B
effect on neutrophil accumulation induced by NAF ([3]; polymyxin B 40 μg/site): without effect
inhibition of the response to endotoxin ([3]; polymyxin B 40 μg/site, endotoxin 10^−13 moles): 84%
effect on neutrophil accumulation induced by fMLP ([3]; polymyxin B 40 μg/site): without effect

concanavalin A [ConA]
time at which maximum of NAF production is reached [7]: about 24 h

phytohemagglutinin [PHA]
time at which maximum of NAF production is reached [7]: about 24 h

B1: C5a: anaphylatoxin (protein, UniProt P01031 678-751, looked up)
C5a anaphylatoxin: TLQKKIEEIAAKYKHSVVKKCCYDGACVNNDETCEQRAARISLGPRCIKAFTECCVVASQLRANISHKDMQLGR
modifications: C5a anaphylatoxin
desensitization to a second stimulation with the same agonist [8]: complete desensitization
time between stimulus addition and onset of H2O2 production [5]: about 2 sec
time between stimulus addition and onset of H2O2 production, as previously reported [1]: about 2 sec
effect of serum treatment on activity [9]: completely abolishes

Source: patent publication US6383479B1, “Neutrophil-activating factor” (Novartis AG, priority 1987, dated 2002)
